Reference: article PMC10179503, “Using Machine Learning and Molecular Docking to Leverage Urease Inhibition Data for Virtual Screening” (International Journal of Molecular Sciences, 2023)

target: T1, jack bean urease (Canavalia ensiformis, UniProt P07374); assay: indophenol (Weatherburn) ammonia release, […] nm; format: biochemical; settings: read-out: % at 1 mM or IC50 ± SEM
T1 construct: nickel metalloenzyme; full length 840 residues, native oligomer a hexamer (known biology)
T1 sequence (P07374 whole entry): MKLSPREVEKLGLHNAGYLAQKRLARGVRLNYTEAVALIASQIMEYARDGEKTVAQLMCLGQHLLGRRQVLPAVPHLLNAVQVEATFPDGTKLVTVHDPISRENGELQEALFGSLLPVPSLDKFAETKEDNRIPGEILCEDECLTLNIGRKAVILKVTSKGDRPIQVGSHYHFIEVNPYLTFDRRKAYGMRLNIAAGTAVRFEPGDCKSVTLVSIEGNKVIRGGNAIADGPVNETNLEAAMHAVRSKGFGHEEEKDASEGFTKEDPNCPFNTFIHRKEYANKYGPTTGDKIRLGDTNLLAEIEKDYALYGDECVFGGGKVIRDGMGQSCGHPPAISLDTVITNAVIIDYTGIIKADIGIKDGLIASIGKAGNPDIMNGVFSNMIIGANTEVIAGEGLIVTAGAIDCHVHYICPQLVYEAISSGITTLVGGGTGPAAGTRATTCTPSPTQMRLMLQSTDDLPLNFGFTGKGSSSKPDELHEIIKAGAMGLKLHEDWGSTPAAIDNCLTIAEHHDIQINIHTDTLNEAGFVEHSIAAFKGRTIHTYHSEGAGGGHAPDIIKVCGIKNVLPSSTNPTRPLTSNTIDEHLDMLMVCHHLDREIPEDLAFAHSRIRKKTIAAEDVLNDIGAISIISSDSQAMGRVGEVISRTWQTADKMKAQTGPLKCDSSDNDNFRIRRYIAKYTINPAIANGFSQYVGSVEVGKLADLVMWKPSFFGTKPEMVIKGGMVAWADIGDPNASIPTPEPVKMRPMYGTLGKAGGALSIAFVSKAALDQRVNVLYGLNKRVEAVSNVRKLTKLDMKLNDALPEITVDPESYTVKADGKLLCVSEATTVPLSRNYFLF

| SMILES | IC50 |
| --- | --- |
| NC(N)=S [Thiourea, reference compound] | 144 ± 5.08 µM |
| O=S(=O)(NOCc1ccccc1)c1ccccc1 [compound 2, 2] | 100 ± 10.2 µM |
| [O-][S+](NOCc1ccccc1)c1ccccc1 (stereo not drawn) [compound 3, 3] | 6.15 ± 0.99 µM |
| NOC(=O)c1ccccc1 [compound 5, 5] | 155 ± 2.02 µM |

target: T1, jack bean urease; assay: indophenol (Weatherburn) ammonia release, […] nm; format: biochemical; settings: urea (20 mM stock, 45 μL), PBS, 30 °C, 10 min

| SMILES | % at 1 mM or IC50 ± SEM (μM) |
| --- | --- |
| O=C(ON[S+]([O-])c1ccccc1)c1ccccc1 (stereo not drawn) [compound 4, 4] | 0% |
| Cc1ccc(S(=O)(=O)NOCc2ccccc2)cc1 [compound 1, 1] | 43.85% |
